The record followed here is publication PMC12521615, “Accurate affinity models for SH2 domains from peptide binding assays and free‐energy regression” (Protein Science : A Publication of the Protein Society, 2025).

In test [1] the target is Grb2 SH2 domain (Homo sapiens, UniProt P62993). Put plainly: biochemical. An excerpt: Measured binding constants (K D) from competition mode fluorescence polarization experiments were obtained using the purified SH2 domains used for the selection and chosen sets of peptides with a phosphorylated tyrosine exactly as described previously (Li et al., [2023]). […] (c‐Src SH2 consensus) was used as the probe, and for the Grb2 SH2 domain, the fluorescently labeled peptide FITC‐Ahx‐FDDPS(pY)VNVQN (Ahx = 6‐aminohexanoic acid) from the Y177 phospho‐tyrosine site of BCR. Before performing the competition mode fluorescence polarization measurement, the K D of the probes for the respective SH2 domains was first measured in a direct mode of fluorescence polarization. […] For the set of peptides where single point mutations were compared, phosphopeptides reported in the PhosphoSitePlus database (Hornbeck et al., [2015]) and previously shown to bind to the c‐Src SH2 domain (Li et al., [2023]) were chosen alongside their respective single point mutants. To choose phosphopeptides for validation of the Lyn SH2 domain, we started from all verified phosphopeptides found in PhosphoSitePlus, filtered based on their co‐expression with the Lyn kinase using the STRING database. Using the validation data for the Fyn SH2 domain, the range of predicted relative binding affinities that corresponds to the range between 1 nM and 100 μM, which is the dynamic range of reliable measurement of absolute binding affinities using our competitive fluorescence polarization setup, was defined and used to further filter the set of candidate phosphopeptides. A subset that evenly covers the chosen range of predicted relative affinities was finally picked for the validation measurements of the Lyn SH2 domain. For the c‐Src, Yes, and Blk SH2 domains, a combination of the previously chosen peptides was used, after verifying that their predicted relative affinities for the given SH2 domain fell within the same measurable range. All peptides containing phosphorylated tyrosine, both fluorescently labeled and non‐labeled, were produced by SynPeptide (China).

For test [2], the target named is T1, c-Src SH2 domain (Homo sapiens, UniProt P12931).
T1 construct: the SH2 domain from c‐Src kinase; His6-SUMO (N, cleaved yes); host or cells: Escherichia coli C43(DE3) with BirA helper plasmid
Put plainly: competitive fluorescence polarization, c-Src SH2 domain. It counts as binding. The following applies: Table S3, unpaired validation; competition fluorescence polarization; probe FITC-Ahx-GDG-pY-EEISPLLL-NH2 30 nM; [SH2] 123-126 nM; mean. Background: In fluorescence polarisation assays a small probe gives low polarisation when free and higher when bound to something large.
Description: Measured binding constants (K D) from competition mode fluorescence polarization experiments were obtained using the purified SH2 domains used for the selection and chosen sets of peptides with a phosphorylated tyrosine exactly as described previously (Li et al., [2023]). […] Before performing the competition mode fluorescence polarization measurement, the K D of the probes for the respective SH2 domains was first measured in a direct mode of fluorescence polarization. […] Using the validation data for the Fyn SH2 domain, the range of predicted relative binding affinities that corresponds to the range between 1 nM and 100 μM, which is the dynamic range of reliable measurement of absolute binding affinities using our competitive fluorescence polarization setup, was defined and used to further filter the set of candidate phosphopeptides. A subset that evenly covers the chosen range of predicted relative affinities was finally picked for the validation measurements of the Lyn SH2 domain.

The structures appear in SMILES notation. Non-standard residues stand in square brackets, D forms with d. Residues, ends and D or L forms follow the SMILES beside them. pY = N[C@@H](Cc1ccc(OP(=O)(O)O)cc1)C(=O)O

Grb2 SH2 domain, sequence (P62993 60-152 limits assumed): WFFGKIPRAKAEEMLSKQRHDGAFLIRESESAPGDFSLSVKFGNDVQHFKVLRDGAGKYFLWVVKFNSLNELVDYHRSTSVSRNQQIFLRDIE
T1 sequence (P12931 151-248 limits assumed): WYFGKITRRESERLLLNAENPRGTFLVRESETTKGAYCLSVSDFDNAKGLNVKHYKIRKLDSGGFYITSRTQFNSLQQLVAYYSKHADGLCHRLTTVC

The Kd is the free concentration of one partner at which half of the binding sites on the other are occupied at equilibrium, for simple one-to-one binding. For the molecule `CC(=O)N[C@@H](CCC(N)=O)C(=O)N[C@@H](Cc1c[nH]cn1)C(=O)N[C@@H](CCCNC(=N)N)C(=O)N[C@@H](CC(C)C)C(=O)N[C@@H](CC(N)=O)C(=O)N[C@@H](CC(N)=O)C(=O)N[C@@H](Cc1ccc(OP(=O)(O)O)cc1)C(=O)N[C@@H](CCC(=O)O)C(=O)N[C@@H](CC(N)=O)C(=O)N[C@@H](CC(N)=O)C(=O)N[C@@H](CCCNC(=N)N)C(=O)N[C@@H](CC(C)C)C(=O)NCC(N)=O` [Syn-G2-6] (Ac-QHRLNN[pY]ENNRLG-NH2), the Kd in test [1] is 2.25 µM. For `CC[C@H](C)[C@H](NC(=O)[C@H](CCC(N)=O)NC(C)=O)C(=O)N[C@@H](CCC(=O)O)C(=O)N[C@H](C(=O)NCC(=O)N[C@H](C(=O)N[C@@H](Cc1ccc(OP(=O)(O)O)cc1)C(=O)N[C@@H](CCC(N)=O)C(=O)N[C@@H](CC(N)=O)C(=O)N1CCC[C@H]1C(=O)N[C@@H](Cc1c[nH]cn1)C(=O)N[C@@H](CC(N)=O)C(=O)NCC(N)=O)[C@@H](C)O)C(C)C` [Syn-G2-7] (Ac-QIEVGT[pY]QNPHNG-NH2), the Kd in test [1] turned out to be 3.24 µM. Take `CC(=O)N[C@@H](CCC(N)=O)C(=O)N[C@@H](CCCCN)C(=O)N[C@@H](CCC(=O)O)C(=O)N[C@@H](C)C(=O)N[C@@H](Cc1c[nH]cn1)C(=O)N[C@@H](Cc1c[nH]cn1)C(=O)N[C@@H](Cc1ccc(OP(=O)(O)O)cc1)C(=O)N[C@H](C(=O)N[C@@H](CC(N)=O)C(=O)N[C@@H](Cc1c[nH]c2ccccc12)C(=O)N[C@@H](CCCNC(=N)N)C(=O)N[C@H](C(=O)NCC(N)=O)[C@@H](C)O)C(C)C` [Syn-G2-1] (Ac-QKEAHH[pY]VNWRTG-NH2): the dissociation constant Kd in test [2] is 9.66 µM; in test [1], 0.0318 µM.
